Experimental data: patent US20240042019A1, “OPTIMIZED TLR7 LIGANDS AND USES THEREOF” (Genentech, Inc., priority 2021, published 2024)
Entries after “also recorded” stand apart in the source; their conditions may differ. Oligonucleotides are written 5' to 3', each unit as a sugar letter and its base; * is a phosphorothioate linkage, no mark a phosphodiester; rarer units and linkages stand in square brackets, end groups in braces. Plain capitals give the bases only. m = 2'-O-methyl; r = 2'-OH (RNA); f = 2'-fluoro

Columns and labels:
[1] = target: T1, TLR8 (Homo sapiens, UniProt Q9NR97); experiment: PBMC stimulation with DOTAP-complexed RNA ligands, TNF-α ELISA; type: cell-based; conditions: human PBMCs, DOTAP delivery, 0.6 μg/ml and 2 μg/ml, 16 hours (FIGS. 10A-10B)
T1 construct: Peripheral blood mononuclear cells (PBMCs) were obtained from buffy coats from healthy adult donors; endogenous in cells; host or cells: primary human PBMCs from healthy donor buffy coats (TLR8 in monocytes)
T1 sequence (Q9NR97 27-1041): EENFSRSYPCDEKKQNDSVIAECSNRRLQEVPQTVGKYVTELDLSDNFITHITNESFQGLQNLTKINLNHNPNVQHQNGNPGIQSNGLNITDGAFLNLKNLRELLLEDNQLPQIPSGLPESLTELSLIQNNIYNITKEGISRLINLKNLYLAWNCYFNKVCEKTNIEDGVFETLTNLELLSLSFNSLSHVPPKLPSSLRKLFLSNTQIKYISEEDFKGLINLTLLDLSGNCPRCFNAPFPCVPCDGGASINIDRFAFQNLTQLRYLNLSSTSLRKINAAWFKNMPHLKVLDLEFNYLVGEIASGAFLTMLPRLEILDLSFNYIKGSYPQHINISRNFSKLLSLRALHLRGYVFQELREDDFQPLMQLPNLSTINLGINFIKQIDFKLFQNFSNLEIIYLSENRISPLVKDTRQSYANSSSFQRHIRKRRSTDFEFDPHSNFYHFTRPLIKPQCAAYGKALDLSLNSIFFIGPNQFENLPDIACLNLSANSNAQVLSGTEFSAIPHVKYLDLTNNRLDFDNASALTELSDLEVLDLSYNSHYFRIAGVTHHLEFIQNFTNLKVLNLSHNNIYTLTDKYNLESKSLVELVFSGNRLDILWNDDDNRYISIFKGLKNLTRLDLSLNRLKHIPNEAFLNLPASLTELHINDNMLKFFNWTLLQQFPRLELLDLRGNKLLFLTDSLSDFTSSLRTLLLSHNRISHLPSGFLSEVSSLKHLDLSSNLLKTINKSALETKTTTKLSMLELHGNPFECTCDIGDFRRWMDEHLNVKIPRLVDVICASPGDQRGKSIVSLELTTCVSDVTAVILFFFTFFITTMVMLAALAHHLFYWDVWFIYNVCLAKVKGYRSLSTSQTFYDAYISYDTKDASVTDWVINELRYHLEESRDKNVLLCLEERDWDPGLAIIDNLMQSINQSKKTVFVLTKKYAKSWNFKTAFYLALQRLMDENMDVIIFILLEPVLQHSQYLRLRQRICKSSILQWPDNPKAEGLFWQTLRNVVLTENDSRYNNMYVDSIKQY

[2] = target: T1, TLR8; experiment: PBMC stimulation with p-L-arginine-complexed RNA ligands, TNF-α ELISA; type: cell-based; conditions: human PBMCs, p-L-arginine delivery, 16 hours, ELISA (FIG. 7)
Procedure: (§1) Peripheral blood mononuclear cells (PBMCs) were obtained from buffy coats from healthy adult donors. Buffy coat samples were first diluted with an equal volume of phosphate-buffered saline (PBS). Next, PBMCs were isolated via density gradient centrifugation with Lymphoprep density gradient media ([…] Technologies) and SepMate-50 tubes ([…] Technologies). Samples were centrifuged at 1000 g for 15 minutes. After centrifugation, the upper layers were collected by pouring into a new tube, diluted with PBS, and centrifuged at 450×g for 5 minutes. To lyse red blood cells, cell pellets were resuspended with 10 mL Ammonium-Chloride-Potassium (ACK) Lysis Buffer and incubated for 8 minutes at room temperature. After lysis, cells were washed with PBS and passed through two 70 μm cell strainers. Viable cell counts were determined with a Vi-CELL cell counter (Beckman Coulter). […] Guanosine was added between about 20 and about 30 minutes before the addition of poly-[…])-complexed RNA. […] After mixing by pipetting up and down, the reaction was incubated for 10 minutes, pipetted up and down again, and then added to the cells. In some experiments, RNA ligands were used at a final concentration of 0.6 μg/ml. Where indicated as “+2'3' cGMP”, 2'3' cyclic GMP purchased from eMolecules was complexed together with the RNA ligands. The final concentration of 2'3' cyclic GMP was 5 μg/ml. p-L-arginine was adjusted accordingly to keep the mass ratio of nucleic acid:p-L-arginine constant. Cell culture supernatants were collected 15-18 hours after stimulation and stored at -80° C. Cytokines in cell culture supernatants were detected with the BD OptEIA human TNF ELISA Set (BD Biosciences), and either Invitrogen IFN alpha Human Matched Antibody Pair kit (Thermo Fisher Scientific) or Human IFN Alpha Multi-Subtype ELISA Kit (PBL Assay Science). To test the effects of the RNA ligands described in Example 1 on TLR7 and TLR8 activation, PBMCs were stimulated with the RNA ligands using p-L-arginine complex delivery, delivery with DOTAP, or delivery without a carrier. Activity of TLR7 and TLR8 was assessed based on measurements of IFN-α or TNF-α by enzyme-linked immunosorbent assays (ELISA). In this setting, as depicted in FIG. 6, IFN-α induced by small RNAs is derived from TLR7 expressed by pDCs, or from RIG-I expressed by monocytes. In contrast, TNF-α secretion is derived from monocytes and serves as an indication of TLR8 activation. As shown in this figure, the p-L-arginine delivery restricts most of the activation to TLRs. First, the effects of the RNA ligands on TLR7 and TLR8 activation using p-L-arginine complex delivery were tested.

[3] = Particle size of RNA-poly-L-arginine complexes by Dynamic Light Scattering; conditions: 10 minute incubation (FIG. 9)
Procedure: Particle sizes were determined by Dynamic Light Scattering (Wyatt Technology). Samples were placed in multiple wells in a 384-well plate and each well was measured ten times for 5 seconds. Z-averages were reported.

[4] = target: T2, TLR7 (Homo sapiens, UniProt Q9NYK1); experiment: PBMC stimulation with p-L-arginine-complexed RNA ligands, IFN-α ELISA; type: cell-based; conditions: human PBMCs; for TLR7 selectivity (IFN-α versus TNF-α secretion): p-L-arginine delivery (FIG. 7); for IFN-α secretion (TLR7 activity): p-L-arginine delivery, 16 hours, ELISA (FIG. 7)
T2 construct: Peripheral blood mononuclear cells (PBMCs) were obtained from buffy coats from healthy adult donors; endogenous in cells; host or cells: primary human PBMCs from healthy donor buffy coats (TLR7 expressed by pDCs)
T2 sequence (Q9NYK1 27-1049): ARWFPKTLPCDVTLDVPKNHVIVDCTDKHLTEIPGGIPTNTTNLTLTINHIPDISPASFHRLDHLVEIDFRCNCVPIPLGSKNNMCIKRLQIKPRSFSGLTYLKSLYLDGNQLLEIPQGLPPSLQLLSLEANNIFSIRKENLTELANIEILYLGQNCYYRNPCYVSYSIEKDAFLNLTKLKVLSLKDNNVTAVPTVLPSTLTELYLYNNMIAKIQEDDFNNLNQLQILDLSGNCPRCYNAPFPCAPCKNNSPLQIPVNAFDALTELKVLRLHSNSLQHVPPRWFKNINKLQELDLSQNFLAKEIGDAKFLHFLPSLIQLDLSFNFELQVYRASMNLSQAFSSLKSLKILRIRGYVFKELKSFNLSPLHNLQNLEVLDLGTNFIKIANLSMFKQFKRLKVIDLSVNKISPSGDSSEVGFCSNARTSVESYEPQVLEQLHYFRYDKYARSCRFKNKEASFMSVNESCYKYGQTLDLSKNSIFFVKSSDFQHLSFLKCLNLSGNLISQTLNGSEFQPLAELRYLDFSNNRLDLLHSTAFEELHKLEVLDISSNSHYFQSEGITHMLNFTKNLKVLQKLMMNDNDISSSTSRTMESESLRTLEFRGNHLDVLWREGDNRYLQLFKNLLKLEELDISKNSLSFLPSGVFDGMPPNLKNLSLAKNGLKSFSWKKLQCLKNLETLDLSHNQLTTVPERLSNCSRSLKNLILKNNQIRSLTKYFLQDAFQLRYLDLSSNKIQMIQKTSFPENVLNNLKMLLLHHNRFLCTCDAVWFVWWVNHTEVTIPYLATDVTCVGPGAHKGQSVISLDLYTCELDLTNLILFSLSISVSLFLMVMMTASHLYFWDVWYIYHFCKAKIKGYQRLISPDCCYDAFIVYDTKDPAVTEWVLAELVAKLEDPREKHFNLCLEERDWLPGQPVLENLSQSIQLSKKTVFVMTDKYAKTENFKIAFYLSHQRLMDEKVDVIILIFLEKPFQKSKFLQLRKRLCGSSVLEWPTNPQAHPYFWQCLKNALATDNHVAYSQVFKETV
Procedure: as §1

[5] = test system: pDC-depleted PBMCs; experiment: IFN-α secretion by pDC-depleted PBMCs versus PBMCs; type: cell-based, human; conditions: Lipofectamine-mediated transfection, pDC-depleted PBMCs vs PBMCs (FIG. 8)
Procedure: Peripheral blood mononuclear cells (PBMCs) were obtained from buffy coats from healthy adult donors. Buffy coat samples were first diluted with an equal volume of phosphate-buffered saline (PBS). Next, PBMCs were isolated via density gradient centrifugation with Lymphoprep density gradient media ([…] Technologies) and SepMate-50 tubes ([…] Technologies). Samples were centrifuged at 1000 g for 15 minutes. After centrifugation, the upper layers were collected by pouring into a new tube, diluted with PBS, and centrifuged at 450×g for 5 minutes. To lyse red blood cells, cell pellets were resuspended with 10 mL Ammonium-Chloride-Potassium (ACK) Lysis Buffer and incubated for 8 minutes at room temperature. After lysis, cells were washed with PBS and passed through two 70 μm cell strainers. Viable cell counts were determined with a Vi-CELL cell counter (Beckman Coulter). […]
Cell culture supernatants were collected 15-18 hours after stimulation and stored at −80° C. Cytokines in cell culture supernatants were detected with the BD OptEIA human TNF ELISA Set (BD Biosciences), and either Invitrogen IFN alpha Human Matched Antibody Pair kit (Thermo Fisher Scientific) or Human IFN Alpha Multi-Subtype ELISA Kit (PBL Assay Science). […]

Row | Substance | TNF-α secretion (TLR8 activity) [1] | TNF-α secretion (TLR8 activity) [2] | Particle size (diameter) of RNA-poly-L-arginine complexes [3] | TLR7 selectivity (IFN-α versus TNF-α secretion) [4] | IFN-α secretion (TLR7 activity) [4] | IFN-α secretion after pDC depletion [5]
1 | C*C*U*U*C*U*U*C*U*U*C*U*U*C*U*U*C*U*U*C (rC*rC*rU*rU*rC*rU*rU*rC*rU*rU*rC*rU*rU*rC*rU*rU*rC*rU*rU*rC) [ORN7012] | further increased TLR8 activation | TLR8-active | behaved similarly | – | – | –
2 | C-G-G-mC-U-C-G-G-C-A-G-A-A-G-C-C-G-G-G-C-C (rCrGrGmCrUrCrGrGrCrArGrArArGrCrCrGrGrGrCrC; hairpin) [ORN70230me, 2′O-methyl-C-modified ORN7023] | – | – | behaved similarly | maintained TLR7 selectivity; also recorded: TLR7-selective | further increasing the activity; also recorded: highly active | –
3 | C*C*G*A*G*C*C*G*C*U*U*U*U*C*C*C (CCGAGCCGCUUUUCCC; all phosphorothioate, sugars by position not given here) [ORN7013, reference compound] | – | – | behaved similarly | limited TLR7 selectivity; also recorded: less TLR7-selective | limited TLR7 selectivity and activity; also recorded: less TLR7-selective and active | –
4 | C*C*G*A*G*C*C*G*C*mU-U*fU-U*C*C*C (rC*rC*rG*rA*rG*rC*rC*rG*rC*mUrU*fUrU*rC*rC*rC) [ORN7016, 2′-fluoro- and 2′O-methyl-modified version of ORN7013] | – | – | behaved similarly | TLR7-selective | weakly active | –
5 | C*C*G*A*G*C*C*G*C*fU-U*fU-U*C*C*C (rC*rC*rG*rA*rG*rC*rC*rG*rC*fUrU*fUrU*rC*rC*rC) [ORN7015, 2′-fluoro modified version of ORN7013] | – | – | behaved similarly | moderately selective | moderately selective and active | –
6 | GGGACGCUGACCCAGAAGAUCACUAGAAAUAGUAGAUCUUCUGGGUCAGCGUCCC (GGGACGCUGACCCAGAAGAUCACUAGAAAUAGUAGAUCUUCUGGGUCAGCGUCCC; RNA, phosphodiester; in vitro transcribed, further chemistry not given here) [IVT4, in vitro transcribed control, RIG-I ligand 3P-RNA] | – | – | – | – | – | maintained after pDC depletion
